Measurements published in US5789395A, “Method of using tetracycline compounds for inhibition of endogenous nitric oxide production” (The Research Foundation of State University of New York, priority 1996, dated 1998).
Converted amounts (≈) assume the structure as drawn. Like-named read-outs stand apart in the source and are kept apart here.

Tests used:
[1] = system: inducible OA-NOS in OA-affected cartilage; assay: NO (nitrite) release from OA-affected cartilage in organ culture; assay type: cell-based, human; conditions: for inhibition of NO production in OA-affected cartilage: 5-80 μg/mL, 24-72 h, ex vivo; for IC50: Homo sapiens, 72 h
Text: We examined whether tetracyclines, e.g., doxycycline or minocycline, could block human OA-NOS activity under ex vivo conditions. Generally accepted pharmacologically relevant concentrations were selected for this study based on previous reports (Greenwald 1994, Yu et al. 1991, Cole et al. 1994, Mallya et al. 1994). OA-affected cartilage was obtained from patients with advanced OA undergoing knee replacement surgery and free of steroidal/nonsteroidal antiinflammatory drugs for at least 2 wk before surgery. OA-affected cartilage slices (FIGs. 1A-1C) were incubated in 0.1% BSA/endotoxin-free medium with 5-80 μg/mL of doxycycline or minocycline (Sigma Chemical Co., St. Louis, Mo.) for 24, 48 and 72 h in ex vivo conditions.
The assay of OA-iNOS in organ culture was basically carried out as described previously (Amin et al. 1995a). Briefly, the OA-affected cartilage was cultured in the presence or absence (Control) of doxycycline and minocycline at 5-80 μg/mL, for 24-72 h in an incubator (37° C.). Activity of NOS was monitored at different time intervals by estimating the amount of the stable end-product, nitrite, in the medium by a modified Griess reaction (Gilliam et al. 1993) using an ELISA reader. The amount of NO spontaneously released (as measured by nitrite accumulation) at 0, 24, 48 and 72 h was 0, 4.8±0.38, 16.4±0.7, and 17.8±0.9 μM, respectively. Data are expressed as μM nitrite released±(SD), n=3-4. The statistics were derived using unpaired Student's t test. FIGS. 1A-1C show a time series of graphs (1A=24 h; 1B=48 h; and IC=72 h) summarizing data representing one of three identical experiments with samples from different patients.

[2] = system: iNOS mRNA; assay: iNOS mRNA expression in LPS-stimulated RAW 264.7 cells (RT-PCR); assay type: cell-based, murine; conditions: 20-40 μg/mL
Procedure: Doxycycline and minocycline may suppress iNOS before the synthesis of the enzyme, leading to inhibition of iNOS protein expression, specific activity and accumulation of nitrite. […] Therefore, to determine the level at which tetracycline inhibited iNOS protein expression, RAW 264.7 cells treated with LPS in the presence or absence of doxycycline and minocycline were analyzed for iNOS mRNA by semi-quantitative RT-PCR.
The presence of iNOS and β-actin mRNA in cells was analyzed by reverse transcription (RT) of total RNA followed by PCR amplification of the cDNA. The sense and antisense oligonucleotides for iNOS were, respectively, 5'-ACGGAGAAGCTTAGATCTGGAGCAGAAGTG-3'(142 to 171) (SEQ ID NO:1) and 5'-CTGCAGGTTGGACCACTGGATCCTGCCGAT-3' (767 to 796) (SEQ ID NO:2). The sense and antisense primers for β-actin were 5'-TCCTTCGTTGCCGGTCCACA-3' (44 to 63) (SEQ ID NO:3) and 5'-CGTCTCCGGAGTCCATCACA-3' (534 to 552) (SEQ ID NO:4), respectively. The predicted PCR product of the iNOS cDNA was 654 bp; that of the β-actin cDNA was 508 bp. The polymerase chain reaction was carried out in an automated DNA thermal cycle (Perkin-Elmer Cetus, Norwalk, Conn.). The total RNA was extracted using TRI-Reagent (MRC Inc., Cincinnati, Ohio). The cDNA was prepared from equal amounts (1-5 μg) of total RNA using a SuperScript™ RNase H Reverse Transcriptase (Gibco BRL, Gaithersburg, Md.). An equal amount of the cDNA was used to amplify the mRNA by PCR. PCR amplification was performed in 50 μL solution containing 1.5 mM MgCl2, 500 ng iNOS primer, 100 ng β-actin primer, 0.2 mM of each dNTP, 2.5 units of Taq DNA polymerase (Gibco). The cycle conditions for amplification of cDNA were 1 min at 94° C., 1-2 min at 55° C. and 3 min at 72° C. for 30 cycles for both iNOS and β-actin. The PCR product was analyzed by electrophoresis on 1.0% agarose gels.
RT-PCR analysis of iNOS and βactin mRNA expression in RAW 264.7 cells was carried out after stimulation with LPS±doxycycline or minocycline. […] Equal amounts of RNA were analyzed for iNOS and β-actin expression as described above.

[3] = system: 133 kD iNOS; assay: iNOS protein expression in LPS-activated RAW 264.7 cells (Western blot); assay type: cell-based, murine
Procedure: (§1) RAW 264.7 cells were activated with 100 ng/mL LPS for 16-18 h, with and without doxycycline or minocycline (20-80 μg/mL) or with hydrocortisone (10 μM). Cell-free extracts were prepared as described above. The extract s were analyzed for 133 kD iNOS by Western blotting, using specific anti-iNOS antibodies.
(§2) Equal amounts of protein (25-50 μg) estimated by BCA reagent (Pierce, Rockford, Ill.) were loaded onto SDS-PAGE gels and stained to verify the concentrations of various protein fractions by examining the intensities of the protein bands on the gels. Western blot analysis was carried out from the same cell extracts. The Western-blotted membrane was probed with a specific anti-murine iNOS monoclonal antibody (Transduction Laboratories, Lexington, Ky.), as specified by the supplier. The same blot was also probed with an anti-actin antibody generously provided by Dr. James L. Lessard (Children's Hospital Medical Center, Cincinnati, Ohio). The blots were developed using the ECL Western blot system (Amersham, Arlington Heights, Ill.). Quantitation of the bands was performed using a densitometer from Molecular Dynamics (Sunnyvale, Calif.). FIG. 5 is representative.

[4] = system: β-actin; assay: β-actin levels in LPS-activated RAW 264.7 cells (Western blot); assay type: cell-based, murine; conditions: 20-80 μg/mL
Procedure: as §1, §2

[5] = system: iNOS in RAW 264.7 murine macrophage cells; assay: nitrite accumulation in LPS-stimulated RAW 264.7 cells; assay type: cell-based; conditions: for IC50: Mus musculus
Procedure: RAW 264.7 murine macrophage cells (American Type Culture Collection, Rockville, Md.) were incubated with and without doxycycline or minocycline (5-80 μg/mL) for 1-2 h followed by activation through addition of 100 ng/mL of LPS (Sigma Chemical Co., St. Louis, Mo.) to induce iNOS (Stuehr et al. 1991). After 14-20 h of incubation, the medium was used to estimate nitrite accumulation by the modified Griess reaction (Gilliam et al. 1993). The values are represented as μM of nitrite accumulated at a given time interval; n=3. The statistics were derived using unpaired Student's t test. The data represent one of three similar experiments.

[6] = system: cartilage; conditions: 20-50 μg/mL; Cole et al. 1994; cited from earlier work

C[C@H]1c2cccc(O)c2C(O)=C2C(=O)[C@]3(O)C(O)=C(C(N)=O)C(=O)[C@@H](N(C)C)[C@@H]3[C@@H](O)[C@@H]21 [doxycycline]
inhibition of NO production in OA-affected cartilage [1]: significantly inhibited NO production in OA-affected cartilage in a dose-dependent manner | IC50 [1]: 32 µg/mL (≈ 72 µM) | decrease of iNOS mRNA expression [2]: > 50% | inhibition of iNOS protein expression ([3]; 20 μg/mL): 11% | inhibition of iNOS protein expression ([3]; 40 μg/mL): 24% | inhibition of iNOS protein expression ([3]; 80 μg/mL): 65% | effect on the levels of β-actin synthesis [4]: no significant effect | concentration at which inhibitory effects on iNOS expression (mRNA, specific activity and nitrite accumulation) reach a plateau [5]: 40 to 80 µg/mL | IC50 ([5]; RAW264.7, 14 h of incubation, read-out: IC50): 72 µg/mL (≈ 162 µM) | IC50 ([5]; RAW264.7, 20 h of incubation, read-out: IC50): 22 µg/mL (≈ 49.5 µM) | concentration required to inhibit iNOS-mediated production of NO by >50% ([5]; compared to minocycline, 14 h and 20 h): significantly higher concentrations | effect on proteoglycan loss and cell death [6]: blocks proteoglycan loss and reduces the cell death associated with proteoglycan loss

CN(C)c1ccc(O)c2c1C[C@H]1C[C@H]3[C@H](N(C)C)C(O)=C(C(N)=O)C(=O)[C@@]3(O)C(O)=C1C2=O [minocycline]
inhibition of NO production in OA-affected cartilage [1]: significantly inhibited NO production in OA-affected cartilage in a dose-dependent manner | IC50 [1]: 54 µg/mL (≈ 118 µM) | decrease of iNOS mRNA expression [2]: > 50% | inhibition of iNOS protein expression ([3]; 20 μg/mL): 14% | inhibition of iNOS protein expression ([3]; 40 μg/mL): 49% | inhibition of iNOS protein expression ([3]; 80 μg/mL): 83% | effect on the levels of β-actin synthesis [4]: no significant effect | concentration at which inhibitory effects on iNOS expression (mRNA, specific activity and nitrite accumulation) reach a plateau [5]: 40 to 80 µg/mL | IC50 ([5]; RAW264.7, 14 h): 17 µg/mL (≈ 37.2 µM) | IC50 ([5]; RAW264.7, 20 h): 12 µg/mL (≈ 26.2 µM)
